Patent US10358435B2, “Triazolyl pyrimidinone compounds as PDE2 inhibitors” (Merck Sharp & Dohme Corp., priority 2015, dated 2019)

target: human PDE2A1 (Homo sapiens (Human), UniProt O00408); assay: IMAP fluorescence polarization assay, human PDE2A1 (PDE selectivity panel); type: biochemical; conditions: FAM cAMP 50 nM with 1000 nM cGMP
Protocol: The activity of the compounds in accordance with the present invention as PDE2 inhibitors may be readily determined using a fluorescence polarization (FP) methodology (Huang, W., et al., J. Biomol Screen, 2002, 7: 215).
Dose-inhibition profiles for each compound were characterized by fitting the mP data to a four-parameter equation given below.
Selectivity for PDE2, as compared to other PDE families, was assessed using the IMAP® technology. Human PDE10A2 enzyme was prepared from cytosolic fractions of transiently transfected HEK cells. All other PDE's were GST Tag human enzyme expressed in insect cells and were obtained from BPS Bioscience (San Diego, Calif.): PDE1A (Cat#60010), human PDE2A1 (Cat#60020), PDE3A (Cat#60030), PDE4A1A (Cat#60040), PDE5A1 (Cat#60050), PDE6C (Cat#60060), PDE7A (Cat#60070), PDE8A1 (Cat#60080), PDE9A2 (Cat#60090), PDE11A4 (Cat#60110).
Assays for PDE 1 through 11 were performed in parallel at room temperature in 384-well microtiter plates with an incubation volume of 20.2 μL. Solutions of test compounds were prepared in DMSO and serially diluted with DMSO to yield 30 μL of each of ten solutions differing by 3-fold in concentration, at 32 serial dilutions per plate. […] A Labcyte POD 810 (Labcyte, Sunnyvale, Calif.) was used to dispense 200 nL from each well of the titration plate to make eleven copies of the assay plate for each titration, one copy for each PDE enzyme. A solution of each enzyme (dilution from aliquots, sufficient to produce 20% substrate conversion) and a separate solution of FAM-labeled cAMP or FAM-labeled cGMP from Molecular Devices (Sunnyvale, Calif., product # R7506 or cGMP#R7508), at a final concentration of 50 nM were made in the assay buffer (10 mM Tris HCl, pH 7.2, 10 mM MgCl2, 0.05% NaN3 0.01% Tween-20, and 1 mM DTT). Note that the substrate for PDE2 is 50 nM FAM cAMP containing 1000 nM of cGMP. The enzyme and the substrate were then added to the assay plates in two consecutive additions of 10 μL and then shaken to mix. The reaction was allowed to proceed at room temperature for 60 minutes. A binding solution was then made from the kit components, comprised of 80% Solution A, 20% Solution B and binding reagent at a volume of 1/600 the total binding solution. The enzymatic reaction was stopped by addition of 60 μL of the binding solution to each well of the assay plate. The plates were sealed and shaken for 10 seconds. The plates were incubated at room temperature for one hour, then the parallel and perpendicular fluorescence was measured using a Tecan Genios Pro plate reader (Tecan, Switzerland). The apparent inhibition constants for the compounds against all 11 PDE's was determined from the parallel and perpendicular fluorescent readings as described for PDE10 FP assay using the following apparent KM values for each enzyme and substrate combination: PDE1A (FAM cGMP) 70 nM, human PDE2A1 (FAM cAMP) 10,000 nM, PDE3A (FAM cAMP) 50 nM, PDE4A1A (FAM cAMP) 1500 nM, PDE5A1 (FAM cGMP) 400 nM, PDE6C (FAM cGMP) 700 nM, PDE7A (FAM cAMP) 150 nM, PDE8A1 (FAM cAMP) 50 nM, PDE9A2 (FAM cGMP) 60 nM, PDE10A2 (FAM cAMP) 150 nM, PDE11A4 (FAM cAMP) 1000 nM. The intrinsic PDE2 inhibitory activity of a compound which may be used in accordance with the present invention may be determined by these assays.

Chain of human PDE2A1 (O00408 other isoform, or with tags, fused parts or gaps): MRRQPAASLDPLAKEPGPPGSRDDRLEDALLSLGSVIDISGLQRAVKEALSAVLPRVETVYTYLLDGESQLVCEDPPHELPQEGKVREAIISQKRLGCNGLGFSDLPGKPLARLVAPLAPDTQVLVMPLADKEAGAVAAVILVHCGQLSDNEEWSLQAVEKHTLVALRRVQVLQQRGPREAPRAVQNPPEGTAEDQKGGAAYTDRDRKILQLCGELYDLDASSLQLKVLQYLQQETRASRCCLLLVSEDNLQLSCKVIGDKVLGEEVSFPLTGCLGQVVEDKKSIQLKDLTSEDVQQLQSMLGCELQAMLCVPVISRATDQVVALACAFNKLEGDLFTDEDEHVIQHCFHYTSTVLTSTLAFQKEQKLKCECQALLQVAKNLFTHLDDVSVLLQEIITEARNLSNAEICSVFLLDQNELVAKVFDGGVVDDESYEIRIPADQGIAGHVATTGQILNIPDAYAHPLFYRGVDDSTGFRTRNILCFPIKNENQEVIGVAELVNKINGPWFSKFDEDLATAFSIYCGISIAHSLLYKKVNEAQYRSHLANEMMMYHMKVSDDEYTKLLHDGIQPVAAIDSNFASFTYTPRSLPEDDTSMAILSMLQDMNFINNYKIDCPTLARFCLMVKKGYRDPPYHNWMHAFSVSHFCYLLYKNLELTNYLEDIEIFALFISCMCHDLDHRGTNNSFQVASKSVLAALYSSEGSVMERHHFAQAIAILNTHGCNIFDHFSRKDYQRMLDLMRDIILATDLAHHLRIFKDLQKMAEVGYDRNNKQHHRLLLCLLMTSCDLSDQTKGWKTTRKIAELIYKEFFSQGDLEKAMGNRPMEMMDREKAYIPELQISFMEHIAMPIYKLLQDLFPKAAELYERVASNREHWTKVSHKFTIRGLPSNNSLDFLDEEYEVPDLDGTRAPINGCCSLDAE

Structure (SMILES)	Ki [nM]
CCc1ccc(C(C)n2cc(-c3cc(=O)[nH]c(C)n3)nn2)c(Cl)c1 (single isomer, unassigned) [Example 20, (S)- or (R)-6-(1-(1-(2-chloro-4-ethylphenyl)ethyl)-1H-1,2,3-triazol-4-yl)-2-methylpyrimidin-4(3H)-one]	46.7
Cc1nc(-c2nnn3c2COCC3c2ccc(C(F)(F)F)cc2)cc(=O)[nH]1 (centres unmarked) [Example 53, 2-methyl-6-(7-(4-(trifluoromethyl)phenyl)-6,7-dihydro-4H-[1,2,3]triazolo[5,1-c][1,4]oxazin-3-yl)pyrimidin-4(3H)-one]	73.2
COc1ccc(Cc2nc(-c3nnn4c3CCC[C@]4(C)c3ccc(C(F)(F)F)cc3F)cc(=O)[nH]2)cc1 (single isomer, unassigned) [Example 90]	1900
Cc1nc(-c2nnn3c2CCCC3c2ccc(C(F)(F)F)cc2F)cc(=O)[nH]1 (single isomer, unassigned) [Example 50, (S)- or (R)-6-(7-(2-fluoro-4-(trifluoromethyl)phenyl)-4,5,6,7-tetrahydro-[1,2,3]triazolo[1,5-a]pyridin-3-yl)-2-methylpyrimidin-4(3H)-one]	20.7
Cc1nc(-c2nnn3c2CCC[C@@]3(C)c2ccc(C(F)(F)F)cc2)cc(=O)[nH]1 (single isomer, unassigned) [Example 54]	16.2
Cc1nc(-n2cc([C@H](C)c3ccc(C(F)(F)F)cc3Cl)nn2)cc(=O)[nH]1 (single isomer, unassigned) [Example 75]	8.9
Cc1nc(-c2cn([C@@H](C)c3ccc(C(F)(F)F)cc3Cl)nn2)cc(=O)[nH]1 (single isomer, unassigned) [Example 35]	41.5
Cc1nc(-c2cnn(C(C)c3ccc(C(F)(F)F)cc3C)n2)cc(=O)[nH]1 (single isomer, unassigned) [Example 5, (R)- or (S)-2-methyl-6-(2-(1-(2-methyl-4-(trifluoromethyl)phenyl)ethyl)-2H-1,2,3-triazol-4-yl)pyrimidin-4(3H)-one]	52.2
Cc1nc(-c2nnc3n2CCCC3(C)c2ccc(C(F)(F)F)cc2)cc(=O)[nH]1 (single isomer, unassigned) [Example 73, (S)- or (R)-2-methyl-6-(8-methyl-8-(4-(trifluoromethyl)phenyl)-5,6,7,8-tetrahydro-[1,2,4]triazolo[4,3-a]pyridin-3-yl)pyrimidin-4(3H)-one]	26.9
CCC(c1ccc(C(F)(F)F)cc1F)n1cc(-c2cc(=O)[nH]c(C)n2)nn1 (single isomer, unassigned) [Example 37, (R)- or (S)-6-(1-(1-(2-fluoro-4-(trifluoromethyl)phenyl)propyl-1H-1,2,3-triazol-4-yl)-2-methylpyrimidin-4(3H)-one]	11
CCc1ccc([C@]2(C)CCCc3c(-c4cc(=O)[nH]c(C)n4)nnn32)c(F)c1 (single isomer, unassigned) [Example 96]	430
Cc1nc(-c2nnc3n2CCC[C@]3(C)c2ccc(C(F)(F)F)cc2F)cc(=O)[nH]1 (single isomer, unassigned) [Example 80]	2060
Cc1nc(-c2cn([C@H](C)c3ccc(C(F)(F)F)cc3C)nn2)cc(=O)[nH]1 (single isomer, unassigned) [Example 10]	132
Cc1nc(-c2cn(C(C)c3cc(F)c(C(F)(F)F)cc3F)nn2)cc(=O)[nH]1 (single isomer, unassigned) [Example 24, (S)- or (R)-6-(1-(1-(2,5-difluoro-4-(triufluoromethyl)phenyl)ethyl)-1H-1,2,3-triazol-4-yl)-2-methylpyrimidin-4(3H)-one]	38.8
Cc1nc(-c2nnc3n2CCC[C@H]3c2ccc(C(F)(F)F)cc2)cc(=O)[nH]1 (single isomer, unassigned) [Example 70]	54.3
Cc1nc(-c2cnn([C@H](C)c3ccc(C(F)(F)F)cc3Cl)n2)cc(=O)[nH]1 (single isomer, unassigned) [Example 1]	36.3
CCc1ccc(C(C)(C)n2cc(-c3cc(=O)[nH]c(C)n3)nn2)c(C)c1 [Example 33, 6-(1-(2-(4-ethyl-2-methylphenyl)propan-2-yl)-1H-1,2,3-triazol-4-yl)-2-methylpyrimidin-4(3H)-one]	99.6
Cc1nc(-c2nnn3c2CCC[C@]3(C)c2ccc(C(F)(F)F)cc2Cl)cc(=O)[nH]1 (single isomer, unassigned) [Example 88]	> 2960
Cc1nc(-c2nnc3n2CCCC3(C)c2ccc(C(F)(F)F)cc2)cc(=O)[nH]1 (single isomer, unassigned) [Example 72, (S)- or (R)-2-methyl-6-(8-methyl-8-(4-(trifluoromethyl)phenyl)-5,6,7,8-tetrahydro-[1,2,4]triazolo[4,3-a]pyridin-3-yl)pyrimidin-4(3H)-one]	864
Cc1nc(-c2nnn3c2CCCCC3(C)c2ccc(C(F)(F)F)cc2F)cc(=O)[nH]1 (single isomer, unassigned) [Example 94, (S)- or (R)-6-(8-(2-Fluoro-4-(triflouromethyl)phenyl)-8-methyl-5,6,7,8-tetrahydro-4H-[1,2,3]triazolo[1,5-a]azepin-3-yl)-2-methylpyrimidin-4(3H)-one]	56.3
Cc1nc(-c2cnn([C@H](C)c3ccc(C(F)(F)F)cc3Cl)n2)cc(=O)[nH]1 (single isomer, unassigned) [Example 2]	~1300
Cc1nc(-c2cn(C(c3ccc(C(F)(F)F)cc3F)C3CC3)nn2)cc(=O)[nH]1 (single isomer, unassigned) [Example 42]	9.7
Cc1nc(-c2cn(C(C)c3ccc(C(F)(F)F)c(F)c3F)nn2)cc(=O)[nH]1 (single isomer, unassigned) [Example 22, (S)- or (R)-6-(1-(1-(2,3-difluoro-4-(trifluoromethyl)phenyl)ethyl)-1H-1,2,3-triazol-4-yl)-2-methylpyrimidin-4(3H)-one]	17.7
Cc1nc(-c2cn(C(C)c3ccc(C4CC4)cc3Cl)nn2)cc(=O)[nH]1 (single isomer, unassigned) [Example 26, (S)- or (R)-6-(1-(1-(2-chloro-4-cyclopropylphenyl)ethyl)-1H-1,2,3-triazol-4-yl)-2-methylpyrimidin-4(3H)-one]	3.2
Cc1nc(-c2nnn3c2CCC[C@]3(C)c2ccc(C(F)(F)F)cc2C)cc(=O)[nH]1 (single isomer, unassigned) [Example 78]	804
Cc1nc(-c2cnn(C(C)c3ccc(C(F)(F)F)cc3F)n2)cc(=O)[nH]1 (single isomer, unassigned) [Example 4, (S)- or (R)-6-(2-(1-(2-fluoro-4-(trifluoromethyl)phenyl)ethyl)-2H-1,2,3-triazol-4-yl)-2-metylpyrimidin-4(3H)-one]	1030
CCCCc1c(-c2cc(=O)[nH]c(C)n2)nnn1C(C)c1ccc(C(F)(F)F)cc1Cl (single isomer, unassigned) [Example 46, (S)- or (R)-6-(5-butyl-1-(1-(2-chloro-4-(trifluoromethyl)phenyl)ethyl)-1H-1,2,3-triazol-4-yl)-2-methylpyrimidin-4(3H)-one]	1100
CCc1ccc(C(C)n2ncc(-c3cc(=O)[nH]c(C)n3)n2)c(Cl)c1 (single isomer, unassigned) [Example 8, (S)- or (R)-6-(2-(1-(2-chloro-4-ethylphenyl)ethyl)-2H-1,2,3-triazol-4-yl)-2-methylpyrimidin-4(3H)-one]	~1550
Cc1nc(-c2nnc(C(C)c3ccc(C(F)(F)F)cc3Cl)[nH]2)cc(=O)[nH]1 (single isomer, unassigned) [Example 65, (R)- or (S)-6-(5-(1-(2-chloro-4-(trifluoromethyl)-phenyl)ethyl)-4H-1,2,4-triazol-3-yl)-2-methylpyrimidin-4(3H)-one]	15.9
